In ChEMBL document CHEMBL1124256, “Enantiomeric effects of homologues of disoxaril on the inhibitory activity against human rhinovirus-14” (1988):
In brackets after ≈: the same amount, converted by molar mass.

Test system: Human rhinovirus sp.
Assay: In vitro minimum inhibitory concentration against human rhinovirus-14 (HRV-14)
Format: functional

Row | Compound | MIC [µg/mL]
1 | CCCC[C@H]1COC(c2ccc(OCCCCCCCc3cc(C)no3)cc2)=N1 | 0.06 (≈ 0.151 µM)
2 | Cc1cc(CCCCCCCOc2ccc(C3=N[C@@H](C(C)C)CO3)cc2)on1 | 0.03 (≈ 0.078 µM)
3 | CCC[C@H]1COC(c2ccc(OCCCCCCCc3cc(C)no3)cc2)=N1 | 0.01 (≈ 0.026 µM)
4 | Cc1cc(CCCCCCCOc2ccc(C3=N[C@H](C(C)C)CO3)cc2)on1 | 0.13 (≈ 0.338 µM)
5 | Cc1cc(CCCCCCCOc2ccc(C3=N[C@H](C)CO3)cc2)on1 | 0.2 (≈ 0.561 µM)
6 | Cc1cc(CCCCCCCOc2ccc(C3=NC(C)CO3)cc2)on1 (stereo not drawn) | 0.03 (≈ 0.0842 µM)
7 | Cc1cc(CCCCCCCOc2ccc(C3=NC(C)(C)CO3)cc2)on1 | 0.03 (≈ 0.081 µM)
8 | Cc1cc(CCCCCCCOc2ccc(C3=NCCO3)cc2)on1 [DISOXARIL] | 0.14 (≈ 0.409 µM)

Other lines, results leading:

Row | MIC [µg/mL] | Compound
9 | 0.02 (≈ 0.0561 µM) | Cc1cc(CCCCCCCOc2ccc(C3=N[C@@H](C)CO3)cc2)on1
10 | 0.06 (≈ 0.162 µM) | CC[C@@H]1COC(c2ccc(OCCCCCCCc3cc(C)no3)cc2)=N1
11 | 0.07 (≈ 0.182 µM) | CCC[C@@H]1COC(c2ccc(OCCCCCCCc3cc(C)no3)cc2)=N1
12 | 0.52 (≈ 1.3 µM) | CCCC[C@@H]1COC(c2ccc(OCCCCCCCc3cc(C)no3)cc2)=N1
13 | 0.01 (≈ 0.027 µM) | CC[C@H]1COC(c2ccc(OCCCCCCCc3cc(C)no3)cc2)=N1
